Measured values as given in patent publication US20230345984A1, “SWEETENERS” (Sweegen, Inc, priority 2022, published 2023).
Non-standard residues stand in square brackets, D forms with d. No end group written: not given here. pGlu = O=C1CC[C@@H](C(=O)O)N1

Assays:
[1] = Sweetness grading of sweetener solutions on a scale from 0 to 15 over 7 days; details: for Sweetness score Day 1 / Sweetness score Day 4 / Sweetness score Day 5 / Sweetness score Day 6 / Sweetness score Day 7: scale of 0-15
Method: Formulations comprising brazzein and rebaudiosides were developed and their relative sweetness was assessed. Sweetness was graded on a scale from 0 (no sweetness) to 15 (maximal sweetness) and assessed for the different formulations over a period of 7 days.

[2] = cited from earlier work
[3] = cited from earlier work; remark: listed apart in the source
[4] = Sensory grading (0 to 9) of flavor and sweetness of chocolate formulations with versus without brazzein; details: chocolate with Reb D, Reb E, Reb I, Reb M, with vs without brazzein; FIG. 2B
Method: Formulations comprising brazzein and chocolate were developed, and their relative flavor and sweetness were assessed. Sweetness and flavor were graded across different factors on a scale from 0 (minimum) to 9 (maximal) and assessed for the different formulations. Different factors tested include sweet taste, bitter taste, chocolate flavor, dairy flavor, sweet aromatics, and green/vegetative. The formulations tested comprise brazzein, Reb D, Reb E, Reb I, Reb M and chocolate compared to a control (chocolate comprising Reb D, Reb E, Reb I, and Reb M).
The sweetness is enhanced by having the early onset and slow fade more like sugar than chocolate that is only sweetened with Reb D, Reb E, Reb I, and Reb M. Therefore, including brazzein in food compositions, such as chocolate, enhance the flavor and sweetness of the composition.

Row | Compound | Sweetness score Day 1 [1] | Sweetness score Day 4 [1] | Sweetness score Day 5 [1] | Sweetness score Day 6 [1] | Sweetness score Day 7 [1] | also measured
1 | OC[C@H]1O[C@@](CO)(O[C@H]2O[C@H](CO)[C@@H](O)[C@H](O)[C@H]2O)[C@@H](O)[C@@H]1O [Sucrose (5%), Sucrose] | 5 | 5 | 5 | 5 | 5 | 
2 | PyrE-bra: major form brazzein, pyroglutamic acid at N-terminus, 54 amino acid residues ([pGlu]DKCKKVYENYPVSKCQLANQCNYDCKLDKHARSGECFYDEKRNLQCICDYCEY; cysteine pairing not given here; UniProt P56552 1-54, looked up) |  |  |  |  |  | Times sweeter than 10% sucrose solution ([2]; vs 10% sucrose solution): 500 times
3 | C=C1C[C@@]23CC[C@H]4[C@@](C)(CCC[C@@]4(C)C(=O)O[C@@H]4O[C@H](CO)[C@@H](O)[C@H](O[C@@H]5O[C@H](CO)[C@@H](O)[C@H](O)[C@H]5O)[C@H]4O[C@@H]4O[C@H](CO)[C@@H](O)[C@H](O)[C@H]4O)[C@@H]2CC[C@]1(O[C@@H]1O[C@H](CO)[C@@H](O)[C@H](O[C@@H]2O[C@H](CO)[C@@H](O)[C@H](O)[C@H]2O)[C@H]1O[C@@H]1O[C@H](CO)[C@@H](O)[C@H](O)[C@H]1O)C3 [Reb M at SE of 5% sucrose, Rebaudioside M] | 5 | 5 | 5 | 5 | 5 | 
4 | brazzein: natural peptide sweetener first isolated from the fruit of Pentadiplandra brazzeana Baillon (SEQ ID NO: 12) (QDKCKKVYENYPVSKCQLANQCNYDCKLDKHARSGECFYDEKRNLQCICDYCEY; Pentadiplandra brazzeana Baillon) |  |  |  |  |  | Sweet taste after incubation at 80° C. for 4.5 hours ([3]; 80° C., 4.5 hours, pH range of 2.5-8.0): sweet taste remains; Sweet taste after incubation at 98° C. for 2 hours ([3]; 98° C., 2 hours): sweet taste remains; Astringency [4]: decreased; Bitter taste at 120 seconds [4]: decreased; Effect on perceived sweetness profile of the solution ([1]; 25 ppm brazzein added to a 5% sucrose solution): slightly enhanced; Sweetness over the 7-day period ([1]; 25 ppm brazzein in 5% sucrose solution): remained stable; Effect on sweetness of a Reb M solution ([1]; brazzein added to Reb M solution with SE of 5% sucrose, compared to sucrose plus brazzein): synergistically enhanced; Times sweeter than sucrose on a weight basis ([2]; weight basis): 500-2000 times
